The values below come from patent publication US8138188B2, “Melanocortin type 4 receptor agonist piperidinoylpyrrolidines” (Pfizer Inc., priority 2006, dated 2012).

Where only a bound is given, the exact number is not on record here.

For one series, the target named is T1, human MC3 receptor (Homo sapiens, UniProt P41968).
T1 construct: stably transfected with full length cDNA encoding human MC1 or MC3 receptors; expressed in transfected cells; host or cells: Chinese hamster ovary cell line (MC3; 'respectively')
Kind of series: In vitro agonist potency (EC50) against melanocortin receptor type 3, cAMP in recombinant cell line. The format is cell-based. Particulars: cell line stably transfected with human MC3, 1 hour at 37° C.

Series [1] can be described thus: In vitro metabolism rate determination, rat liver microsome (RLM) assay. Format: in vitro ADME. Particulars: rat liver microsomes, substrate 1 μM; read-out: RLM (intrinsic clearance). On the technique in general: Microsomes from liver hold many membrane-bound enzymes, among them those of drug oxidation.

T1 sequence (P41968 whole entry): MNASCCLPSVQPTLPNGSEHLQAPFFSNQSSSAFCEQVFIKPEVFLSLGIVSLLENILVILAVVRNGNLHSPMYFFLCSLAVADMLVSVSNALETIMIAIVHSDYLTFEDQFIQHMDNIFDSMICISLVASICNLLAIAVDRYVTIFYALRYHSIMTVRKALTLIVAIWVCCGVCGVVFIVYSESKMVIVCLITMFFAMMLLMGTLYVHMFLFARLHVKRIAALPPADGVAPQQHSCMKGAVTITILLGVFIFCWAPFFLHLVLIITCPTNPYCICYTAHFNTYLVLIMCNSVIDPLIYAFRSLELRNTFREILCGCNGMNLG

As for `CC1CN(C(=O)C2CN(c3cncc(F)c3)CC2c2ccc(Cl)cn2)CC(C)C1(O)c1ccc(F)cc1` (centres unmarked) [Example 25], the EC50 on human MC3 receptor worked out at 189 nM. For the same compound, in series [1], the microsomal CLint at 1 μM was 172 µL/min/mg.

Consider `COc1ccc(N2CC(C(=O)N3CC(C)C(O)(C4CC4)C(C)C3)C(c3ccc(Cl)cn3)C2)nn1` (centres unmarked) [Example 26], for which the EC50 on human MC3 receptor was 4210 nM. Moreover, in series [1], the microsomal CLint at 1 μM is above 510 µL/min/mg.

As for `CC1CN(C(=O)C2CN(c3ccc(=O)[nH]n3)CC2c2ccc(Cl)cn2)CC(C)C1(O)c1ccccc1` (centres unmarked) [Example 27], the EC50 on human MC3 receptor is 390 nM. The microsomal CLint at 1 μM in series [1] was found to be 31 µL/min/mg.

Turning to `C[C@@H]1CN(C(=O)[C@@H]2CN(c3ccc(=O)[nH]n3)C[C@H]2c2ccc(Cl)cn2)C[C@H](C)[C@@]1(O)c1ccccn1` [Example 28], on human MC3 receptor, the EC50 stood at 938 nM. Besides, the microsomal CLint at 1 μM in series [1] was 51 µL/min/mg.

As for `CC1CN(C(=O)C2CN(c3ccc(C#N)nn3)CC2c2ccc(Cl)cn2)CC(C)C1(O)c1ccccn1` (centres unmarked) [Example 30], the EC50 at human MC3 receptor came out at 61.5 nM. Besides, the microsomal CLint at 1 μM in series [1] is 69.5 µL/min/mg.

Take `C[C@@H]1CN(C(=O)[C@@H]2CN(c3ccc(Cl)nn3)C[C@H]2c2ccc(Cl)cn2)C[C@H](C)[C@@]1(O)c1ccccn1` [Example 31]: the concentration for a half-maximal effect (EC50) on human MC3 receptor was found to be 410 nM. In series [1], the microsomal CLint at 1 μM was 292 µL/min/mg.

As to `C[C@@H]1CN(C(=O)[C@@H]2CN(c3ccc(C#N)nn3)C[C@H]2c2ccc(F)cn2)C[C@H](C)[C@@]1(O)c1ccc(Cl)cc1` [Example 32], the EC50 on human MC3 receptor worked out at 76.6 nM. The microsomal CLint at 1 μM in series [1] was below 8.5 µL/min/mg.

Regarding `CC1CN(C(=O)C2CN(c3ccc(C#N)nn3)CC2c2ccc(F)cn2)CC(C)C1(O)c1ccccc1` (centres unmarked) [Example 33], the concentration for a half-maximal effect (EC50) on human MC3 receptor came to 193 nM. Moreover, the microsomal CLint at 1 μM in series [1] worked out at 72 µL/min/mg.

As for `C[C@@H]1CN(C(=O)[C@@H]2CN(c3ccc(Cl)nn3)C[C@H]2c2ccc(F)cn2)C[C@H](C)[C@@]1(O)c1ccccc1` [Example 35], the EC50 at human MC3 receptor came to 878 nM. Further, the microsomal CLint at 1 μM in series [1] came out at 92 µL/min/mg.

`CC1CN(C(=O)C2CN(c3ccc(=O)[nH]n3)CC2c2ccc(F)cn2)CC(C)C1(O)c1ccccc1` (centres unmarked) [Example 37]: the EC50 at human MC3 receptor worked out at 325 nM. In addition, in series [1], the microsomal CLint at 1 μM is 23 µL/min/mg.

`CC1CN(C(=O)C2CN(c3ccc(=O)n(C)n3)CC2c2ccc(F)cn2)CC(C)C1(O)c1ccccc1` (centres unmarked) [Example 39]: the EC50 on human MC3 receptor is 2100 nM. In addition, the microsomal CLint at 1 μM in series [1] was 58 µL/min/mg.

As to `CC1CN(C(=O)C2CN(c3ccc(=O)n(C)n3)CC2c2ccc(F)cn2)CC(C)C1(O)c1ccc(F)cc1` (centres unmarked) [Example 40], the EC50 on human MC3 receptor turned out to be 580 nM. Besides, the microsomal CLint at 1 μM in series [1] was below 8.5 µL/min/mg.

Turning to `COc1ccc([C@@H]2CN(c3ccc(=O)[nH]n3)C[C@H]2C(=O)N2C[C@@H](C)[C@](O)(c3ccc(Cl)cn3)[C@@H](C)C2)nc1` [Example 41], the EC50 at human MC3 receptor was above 33300 nM. Also, the microsomal CLint at 1 μM in series [1] worked out at 30 µL/min/mg.

Take `COc1ccc(C2CN(c3ccc(=O)[nH]n3)CC2C(=O)N2CC(C)C(O)(c3ccc(F)cc3)C(C)C2)nc1` (centres unmarked) [Example 42]: the EC50 at human MC3 receptor was above 20300 nM. For the same compound, in series [1], the microsomal CLint at 1 μM was 25 µL/min/mg.

For the compound `CC1CN(C(=O)C2CN(c3ccc(C#N)cn3)CC2c2ccc(C#N)cn2)CC(C)C1(O)c1ccc(F)cc1` (centres unmarked) [Example 45], at human MC3 receptor, the EC50 worked out at 66.1 nM. The microsomal CLint at 1 μM in series [1] is below 8.5 µL/min/mg.

Consider `C[C@@H]1CN(C(=O)[C@@H]2CN(c3ccc(C#N)nn3)C[C@H]2c2ccc(C#N)cn2)C[C@H](C)[C@@]1(O)c1ccc(F)cc1` [Example 46], for which, at human MC3 receptor, the EC50 was 50.8 nM. Besides, the microsomal CLint at 1 μM in series [1] is below 8.5 µL/min/mg.

One may read the EC50 as the concentration giving half of the maximal effect.
